Some results are limits rather than exact numbers.

The target of one assay is Acetylcholinesterase (Homo sapiens, UniProt P22303). The format is functional.
The target in assay [1] is T1, Alpha-2A adrenergic receptor (Homo sapiens, UniProt P08913).
T1 sequence (P08913 whole entry): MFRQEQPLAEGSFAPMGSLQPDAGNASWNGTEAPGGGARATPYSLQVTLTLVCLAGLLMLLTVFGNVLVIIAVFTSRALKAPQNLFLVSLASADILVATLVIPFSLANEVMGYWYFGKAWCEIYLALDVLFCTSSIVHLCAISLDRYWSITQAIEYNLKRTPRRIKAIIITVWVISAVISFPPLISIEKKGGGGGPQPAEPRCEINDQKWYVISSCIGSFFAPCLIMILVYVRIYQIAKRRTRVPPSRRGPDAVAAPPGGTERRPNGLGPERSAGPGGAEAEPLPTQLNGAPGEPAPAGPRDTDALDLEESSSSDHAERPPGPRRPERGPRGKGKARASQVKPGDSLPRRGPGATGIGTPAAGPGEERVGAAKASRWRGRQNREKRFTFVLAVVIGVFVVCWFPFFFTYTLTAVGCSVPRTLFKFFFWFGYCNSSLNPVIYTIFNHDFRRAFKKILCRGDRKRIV

In assay [2] the target is T2, Muscarinic acetylcholine receptor M2 (Homo sapiens, UniProt P08172).
T2 sequence (P08172 whole entry): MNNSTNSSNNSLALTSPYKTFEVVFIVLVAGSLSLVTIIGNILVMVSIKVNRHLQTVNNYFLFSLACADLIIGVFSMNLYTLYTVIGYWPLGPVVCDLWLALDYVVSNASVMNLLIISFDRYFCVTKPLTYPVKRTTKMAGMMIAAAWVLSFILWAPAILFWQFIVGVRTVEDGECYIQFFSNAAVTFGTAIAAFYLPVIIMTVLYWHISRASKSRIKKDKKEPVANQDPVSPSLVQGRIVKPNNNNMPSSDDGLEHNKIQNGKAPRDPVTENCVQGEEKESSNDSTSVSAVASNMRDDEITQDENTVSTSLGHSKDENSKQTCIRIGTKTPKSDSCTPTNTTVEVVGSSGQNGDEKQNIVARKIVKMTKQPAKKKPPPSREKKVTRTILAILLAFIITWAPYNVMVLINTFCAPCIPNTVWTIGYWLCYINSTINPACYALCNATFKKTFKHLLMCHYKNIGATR

For the next assay, the target named is Prothrombin (Homo sapiens, UniProt P00734). The format is functional.
For a further assay, the target named is Histamine H3 receptor (Homo sapiens, UniProt Q9Y5N1).
The target in assay [3] is T3, 5-hydroxytryptamine receptor 1A (Homo sapiens, UniProt P08908).
T3 sequence (P08908 whole entry): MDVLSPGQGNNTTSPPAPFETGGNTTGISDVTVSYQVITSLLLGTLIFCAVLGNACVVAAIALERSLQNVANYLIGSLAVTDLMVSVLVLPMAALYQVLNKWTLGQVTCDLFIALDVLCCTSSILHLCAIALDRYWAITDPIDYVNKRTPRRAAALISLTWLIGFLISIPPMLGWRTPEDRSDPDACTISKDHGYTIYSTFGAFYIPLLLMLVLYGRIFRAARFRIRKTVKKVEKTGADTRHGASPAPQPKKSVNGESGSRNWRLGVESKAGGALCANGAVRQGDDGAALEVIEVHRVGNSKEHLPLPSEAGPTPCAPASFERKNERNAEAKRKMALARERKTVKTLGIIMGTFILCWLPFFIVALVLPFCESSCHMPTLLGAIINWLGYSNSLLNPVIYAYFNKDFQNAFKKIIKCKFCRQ

Assay [4] has as its target 5-hydroxytryptamine receptor 2B (Homo sapiens, UniProt P41595). The format is functional, cell-based.
Assay [5] deals with Voltage-gated inwardly rectifying potassium channel KCNH2 (Homo sapiens, UniProt Q12809). The format is functional.
Assay [6] concerns the target T4, Amine oxidase [flavin-containing] A (Homo sapiens, UniProt P21397).
T4 sequence (P21397 whole entry): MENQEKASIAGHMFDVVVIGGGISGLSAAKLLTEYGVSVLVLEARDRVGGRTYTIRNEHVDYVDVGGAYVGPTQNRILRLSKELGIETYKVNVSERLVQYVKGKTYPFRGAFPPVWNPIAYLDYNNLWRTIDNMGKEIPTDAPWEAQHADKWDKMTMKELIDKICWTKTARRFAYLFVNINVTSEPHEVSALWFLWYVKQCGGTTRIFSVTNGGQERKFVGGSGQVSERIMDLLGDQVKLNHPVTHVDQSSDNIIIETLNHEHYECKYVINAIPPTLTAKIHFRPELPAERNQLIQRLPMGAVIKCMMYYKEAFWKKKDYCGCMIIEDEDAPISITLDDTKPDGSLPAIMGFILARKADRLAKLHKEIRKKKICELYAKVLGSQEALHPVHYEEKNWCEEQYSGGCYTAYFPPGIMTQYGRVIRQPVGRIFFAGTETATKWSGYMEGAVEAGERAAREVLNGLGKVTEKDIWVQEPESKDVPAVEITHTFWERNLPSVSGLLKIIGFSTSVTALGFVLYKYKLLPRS
The format is functional.

The target of assay [7] is cGMP-inhibited 3',5'-cyclic phosphodiesterase 3A (Homo sapiens, UniProt Q14432). The format is functional.
The target of assay [8] is 3',5'-cyclic-AMP phosphodiesterase 4A (Homo sapiens, UniProt P27815). The format is functional.
The target in assay [9] is Sodium-dependent dopamine transporter (Homo sapiens, UniProt Q01959).
For assay [10], the target named is T5, Thromboxane A2 receptor (Homo sapiens, UniProt P21731).
T5 sequence (P21731 whole entry): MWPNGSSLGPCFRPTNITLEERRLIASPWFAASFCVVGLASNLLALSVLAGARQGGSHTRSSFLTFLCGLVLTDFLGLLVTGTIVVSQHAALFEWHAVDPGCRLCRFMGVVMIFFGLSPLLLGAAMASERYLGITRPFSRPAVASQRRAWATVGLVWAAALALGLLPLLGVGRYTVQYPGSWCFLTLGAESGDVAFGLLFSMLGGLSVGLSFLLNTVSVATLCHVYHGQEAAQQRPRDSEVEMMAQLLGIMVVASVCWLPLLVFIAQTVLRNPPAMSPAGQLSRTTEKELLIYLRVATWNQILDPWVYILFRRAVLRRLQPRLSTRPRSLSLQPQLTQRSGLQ
The format is functional, cell-based.

For assay [11], the target named is T5, Thromboxane A2 receptor. The format is functional, cell-based. The source holds these as a separate data set.
Note: assay procedure not described here.

Sequence of Voltage-gated inwardly rectifying potassium channel KCNH2 (Q12809 whole entry): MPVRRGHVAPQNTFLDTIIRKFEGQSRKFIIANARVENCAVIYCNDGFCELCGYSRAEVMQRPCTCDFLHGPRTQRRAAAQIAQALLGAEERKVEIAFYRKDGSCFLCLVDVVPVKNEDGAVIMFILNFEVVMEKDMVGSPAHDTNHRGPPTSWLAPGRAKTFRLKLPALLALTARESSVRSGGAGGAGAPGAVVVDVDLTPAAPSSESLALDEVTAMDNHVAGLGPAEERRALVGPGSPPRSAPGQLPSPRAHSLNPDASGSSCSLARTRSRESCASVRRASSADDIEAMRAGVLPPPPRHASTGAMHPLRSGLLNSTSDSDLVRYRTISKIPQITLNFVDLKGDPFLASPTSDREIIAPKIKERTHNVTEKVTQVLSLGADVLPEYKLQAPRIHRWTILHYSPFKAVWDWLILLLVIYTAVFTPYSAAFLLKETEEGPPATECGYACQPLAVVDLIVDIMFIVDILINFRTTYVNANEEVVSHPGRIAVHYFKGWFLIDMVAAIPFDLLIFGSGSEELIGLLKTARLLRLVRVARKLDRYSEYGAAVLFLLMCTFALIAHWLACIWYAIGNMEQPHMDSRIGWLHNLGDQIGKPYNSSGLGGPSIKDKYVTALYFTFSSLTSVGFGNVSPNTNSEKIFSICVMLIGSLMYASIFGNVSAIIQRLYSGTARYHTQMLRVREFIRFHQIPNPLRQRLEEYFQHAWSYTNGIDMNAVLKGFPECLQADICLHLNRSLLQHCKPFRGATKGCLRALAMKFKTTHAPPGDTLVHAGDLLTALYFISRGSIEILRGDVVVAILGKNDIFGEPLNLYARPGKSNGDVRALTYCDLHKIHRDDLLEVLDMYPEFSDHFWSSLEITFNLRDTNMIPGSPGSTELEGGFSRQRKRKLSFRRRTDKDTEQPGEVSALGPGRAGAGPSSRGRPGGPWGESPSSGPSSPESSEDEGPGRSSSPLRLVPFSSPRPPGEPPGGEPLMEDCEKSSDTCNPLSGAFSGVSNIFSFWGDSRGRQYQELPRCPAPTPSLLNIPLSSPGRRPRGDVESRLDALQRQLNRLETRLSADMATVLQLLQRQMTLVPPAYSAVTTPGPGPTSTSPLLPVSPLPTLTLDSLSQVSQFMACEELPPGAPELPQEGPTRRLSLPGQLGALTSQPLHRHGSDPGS
Sequence of Acetylcholinesterase (P22303 whole entry): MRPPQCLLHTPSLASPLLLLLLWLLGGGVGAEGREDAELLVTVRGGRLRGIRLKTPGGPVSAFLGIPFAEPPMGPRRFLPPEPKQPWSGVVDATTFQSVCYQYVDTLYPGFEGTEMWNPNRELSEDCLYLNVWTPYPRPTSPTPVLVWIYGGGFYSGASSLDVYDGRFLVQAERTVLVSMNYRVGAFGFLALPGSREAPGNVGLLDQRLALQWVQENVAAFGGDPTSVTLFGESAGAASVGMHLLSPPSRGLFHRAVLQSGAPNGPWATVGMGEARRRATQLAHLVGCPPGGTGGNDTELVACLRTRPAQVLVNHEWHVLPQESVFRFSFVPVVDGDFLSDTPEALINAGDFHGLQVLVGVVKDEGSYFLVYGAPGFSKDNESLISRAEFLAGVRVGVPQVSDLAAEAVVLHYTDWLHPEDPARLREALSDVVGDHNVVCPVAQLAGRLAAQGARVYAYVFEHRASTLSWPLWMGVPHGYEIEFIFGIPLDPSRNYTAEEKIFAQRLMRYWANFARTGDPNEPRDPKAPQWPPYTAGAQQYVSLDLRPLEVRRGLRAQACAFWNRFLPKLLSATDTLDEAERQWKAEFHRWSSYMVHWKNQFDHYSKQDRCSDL
Sequence of Histamine H3 receptor (Q9Y5N1 whole entry): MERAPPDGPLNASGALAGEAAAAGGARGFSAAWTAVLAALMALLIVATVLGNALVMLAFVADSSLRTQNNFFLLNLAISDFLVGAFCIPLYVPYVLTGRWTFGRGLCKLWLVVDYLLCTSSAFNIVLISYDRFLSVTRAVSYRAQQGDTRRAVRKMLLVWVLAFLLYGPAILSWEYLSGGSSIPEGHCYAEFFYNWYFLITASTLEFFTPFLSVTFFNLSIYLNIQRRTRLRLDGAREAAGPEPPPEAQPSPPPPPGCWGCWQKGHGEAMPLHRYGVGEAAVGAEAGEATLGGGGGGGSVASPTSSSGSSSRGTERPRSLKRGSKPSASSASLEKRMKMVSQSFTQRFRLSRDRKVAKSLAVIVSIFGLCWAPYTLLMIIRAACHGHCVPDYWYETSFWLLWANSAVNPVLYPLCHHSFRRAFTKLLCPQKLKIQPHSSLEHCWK
Sequence of cGMP-inhibited 3',5'-cyclic phosphodiesterase 3A (Q14432 whole entry): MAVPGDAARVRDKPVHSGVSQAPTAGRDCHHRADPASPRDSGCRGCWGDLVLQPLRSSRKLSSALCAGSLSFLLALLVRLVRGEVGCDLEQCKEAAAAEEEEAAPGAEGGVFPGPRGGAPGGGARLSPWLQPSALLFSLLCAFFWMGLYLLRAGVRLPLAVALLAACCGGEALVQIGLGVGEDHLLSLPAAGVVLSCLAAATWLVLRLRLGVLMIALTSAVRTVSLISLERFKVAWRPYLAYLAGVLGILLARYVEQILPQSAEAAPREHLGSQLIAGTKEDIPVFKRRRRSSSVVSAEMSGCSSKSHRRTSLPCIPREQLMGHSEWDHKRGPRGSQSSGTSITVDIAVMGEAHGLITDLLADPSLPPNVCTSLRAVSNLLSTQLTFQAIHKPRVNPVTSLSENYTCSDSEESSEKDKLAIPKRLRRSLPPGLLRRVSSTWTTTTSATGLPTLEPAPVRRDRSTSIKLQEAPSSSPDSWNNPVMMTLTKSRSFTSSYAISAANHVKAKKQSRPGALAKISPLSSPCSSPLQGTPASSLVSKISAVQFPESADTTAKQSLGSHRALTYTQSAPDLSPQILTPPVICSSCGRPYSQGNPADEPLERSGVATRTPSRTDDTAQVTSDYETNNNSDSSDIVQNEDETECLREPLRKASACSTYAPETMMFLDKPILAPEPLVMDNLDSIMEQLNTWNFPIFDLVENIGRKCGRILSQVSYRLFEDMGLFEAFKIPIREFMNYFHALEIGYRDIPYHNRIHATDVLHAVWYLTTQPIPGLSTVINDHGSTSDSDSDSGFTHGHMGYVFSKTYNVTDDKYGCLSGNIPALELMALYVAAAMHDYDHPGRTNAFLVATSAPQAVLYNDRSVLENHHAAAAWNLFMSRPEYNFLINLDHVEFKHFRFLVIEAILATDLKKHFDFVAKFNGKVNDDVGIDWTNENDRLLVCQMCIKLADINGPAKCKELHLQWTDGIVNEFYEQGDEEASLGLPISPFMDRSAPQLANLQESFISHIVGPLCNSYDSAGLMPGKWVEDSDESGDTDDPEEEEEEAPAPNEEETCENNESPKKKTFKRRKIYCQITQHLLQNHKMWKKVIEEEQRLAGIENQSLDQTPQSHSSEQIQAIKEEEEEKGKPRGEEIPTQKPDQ
Sequence of Sodium-dependent dopamine transporter (Q01959 whole entry): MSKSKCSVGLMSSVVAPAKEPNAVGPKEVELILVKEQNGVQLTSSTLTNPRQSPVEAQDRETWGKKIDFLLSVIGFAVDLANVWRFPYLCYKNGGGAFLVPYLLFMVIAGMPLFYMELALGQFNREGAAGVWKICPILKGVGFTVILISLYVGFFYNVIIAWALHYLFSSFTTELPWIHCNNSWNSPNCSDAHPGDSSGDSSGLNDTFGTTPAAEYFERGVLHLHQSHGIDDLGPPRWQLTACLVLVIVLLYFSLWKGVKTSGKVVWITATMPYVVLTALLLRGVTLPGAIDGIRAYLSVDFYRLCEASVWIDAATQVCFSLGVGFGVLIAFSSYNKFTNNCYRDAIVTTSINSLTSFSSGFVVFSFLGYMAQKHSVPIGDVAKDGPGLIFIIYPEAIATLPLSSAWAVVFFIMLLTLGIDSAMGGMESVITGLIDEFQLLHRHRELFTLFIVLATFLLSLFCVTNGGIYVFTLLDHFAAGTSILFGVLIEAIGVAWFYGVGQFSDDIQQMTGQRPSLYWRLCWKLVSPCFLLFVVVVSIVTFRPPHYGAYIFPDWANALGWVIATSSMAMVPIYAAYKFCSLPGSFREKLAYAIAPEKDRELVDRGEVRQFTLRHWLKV
Sequence of 3',5'-cyclic-AMP phosphodiesterase 4A (P27815 whole entry): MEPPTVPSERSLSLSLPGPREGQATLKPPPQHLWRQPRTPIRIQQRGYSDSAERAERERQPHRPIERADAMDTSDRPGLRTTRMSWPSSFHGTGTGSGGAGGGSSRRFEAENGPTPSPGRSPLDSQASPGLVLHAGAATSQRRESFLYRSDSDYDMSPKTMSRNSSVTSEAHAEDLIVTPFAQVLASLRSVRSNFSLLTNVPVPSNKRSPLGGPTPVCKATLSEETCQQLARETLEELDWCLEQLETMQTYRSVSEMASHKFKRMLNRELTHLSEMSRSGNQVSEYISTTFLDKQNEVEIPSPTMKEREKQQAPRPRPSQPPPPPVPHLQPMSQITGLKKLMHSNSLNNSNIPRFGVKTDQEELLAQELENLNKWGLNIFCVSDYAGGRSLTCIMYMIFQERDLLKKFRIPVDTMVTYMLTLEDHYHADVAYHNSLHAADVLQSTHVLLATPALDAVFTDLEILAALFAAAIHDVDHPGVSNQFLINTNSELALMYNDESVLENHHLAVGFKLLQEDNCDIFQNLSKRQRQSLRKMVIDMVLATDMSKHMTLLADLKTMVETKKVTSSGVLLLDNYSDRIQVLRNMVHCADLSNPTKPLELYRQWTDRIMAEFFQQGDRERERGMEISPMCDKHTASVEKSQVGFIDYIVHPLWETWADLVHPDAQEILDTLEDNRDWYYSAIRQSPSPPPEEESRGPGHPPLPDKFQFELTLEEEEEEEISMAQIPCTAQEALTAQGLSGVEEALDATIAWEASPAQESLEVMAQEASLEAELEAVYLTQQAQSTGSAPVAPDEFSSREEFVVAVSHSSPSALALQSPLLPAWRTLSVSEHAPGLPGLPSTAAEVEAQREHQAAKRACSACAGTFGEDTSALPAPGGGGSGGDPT

Take `N#Cc1ccc(Oc2ccc3c(c2)COB3O)cc1` [CRISABOROLE]: the AC50 (at Acetylcholinesterase; in assay [1]; in [2]; at Prothrombin; on Histamine H3 receptor; in assay [3]) was greater than 30 µM in each case. Further, the half-maximal activity concentration (AC50) (in general, the concentration giving half of the maximal activity seen) in assay [4] was greater than 30 µM; in [5], greater than 30 µM; in [6], greater than 30 µM; in [7], 14.7 µM; in assay [8] it was 0.337 µM; in assay [9] it was greater than 30 µM. Moreover, the AC50 at Thromboxane A2 receptor [10] and at Thromboxane A2 receptor [11] was greater than 30 µM in each case.

`CC(=O)O[C@H]1Cc2ccccc2N(C(N)=O)c2ccccc21` [ESLICARBAZEPINE ACETATE]: the half-maximal activity concentration (AC50) (on Acetylcholinesterase; in assay [1]; in assay [2]; at Prothrombin; on Histamine H3 receptor; in [3]) was greater than 30 µM in each case. In addition, the AC50 in assay [4], in assay [5], in [6], in [7], in [8] and in assay [9] was greater than 30 µM throughout. In addition, the AC50 on Thromboxane A2 receptor [10] and on Thromboxane A2 receptor [11] was greater than 30 µM each time.

Consider `Cc1ccc(S(=O)(=O)NC(=O)NC2CCCCC2)cc1` [GLYCYCLAMIDE], for which the AC50 (on Acetylcholinesterase; in assay [1]; in [2]; on Prothrombin; on Histamine H3 receptor; in [3]) was greater than 30 µM in each case. The AC50 in assay [4], in [5], in assay [6], in assay [7], in assay [8] and in assay [9] was greater than 30 µM throughout. Also, the AC50 at Thromboxane A2 receptor [10] and on Thromboxane A2 receptor [11] was greater than 30 µM each time.

For `CN1CCCN(C(c2ccccc2)c2ccc(Cl)cc2)CC1` (stereo unspecified) [HOMOCHLORCYCLIZINE], the AC50 is greater than 30 µM at Acetylcholinesterase; 1.35 µM in [1]; 0.149 µM in assay [2]; greater than 30 µM on Prothrombin; greater than 30 µM at Histamine H3 receptor; 13.7 µM in assay [3]. Further, the half-maximal activity concentration (AC50) in assay [4] was greater than 30 µM; in [5], 0.81 µM; in [6], greater than 30 µM; in assay [7], greater than 30 µM; in [8], greater than 30 µM; in assay [9], 0.229 µM. Moreover, the half-maximal activity concentration (AC50) on Thromboxane A2 receptor [10] is 11.8 µM; on Thromboxane A2 receptor [11], greater than 3 µM.

For the compound `CC(=O)OCC(=O)[C@@]1(O)CC[C@H]2[C@@H]3CCC4=CC(=O)CC[C@]4(C)[C@H]3[C@@H](O)C[C@@]21C` [HYDROCORTISONE ACETATE], the AC50 (at Acetylcholinesterase; in assay [1]; in [2]; at Prothrombin; at Histamine H3 receptor; in [3]) was greater than 30 µM each time. In addition, the concentration at half-maximal activity (AC50) in assay [4], in [5], in assay [6], in assay [7], in assay [8] and in assay [9] was greater than 30 µM each time. The half-maximal activity concentration (AC50) at Thromboxane A2 receptor [10] and at Thromboxane A2 receptor [11] was greater than 30 µM in each case.

In the case of `CC(COc1ccccc1)NC(C)C(O)c1ccc(O)cc1` (stereo unspecified) [ISOXSUPRINE], the AC50 at Acetylcholinesterase is greater than 30 µM; in assay [1], 0.446 µM; in assay [2] it was greater than 30 µM; on Prothrombin, greater than 30 µM; on Histamine H3 receptor, greater than 30 µM; in assay [3], 0.203 µM. Besides, the AC50 is greater than 30 µM in assay [4]; 15 µM in assay [5]; greater than 10 µM in assay [6]; greater than 30 µM in [7]; greater than 30 µM in assay [8]; 0.625 µM in [9]. In addition, the AC50 at Thromboxane A2 receptor [10] and at Thromboxane A2 receptor [11] was greater than 30 µM in each case.

On to `Cc1oc(=O)oc1COC(=O)[C@@H]1N2C(=O)[C@@H](NC(=O)[C@H](N)c3ccccc3)[C@H]2SC1(C)C` [LENAMPICILLIN], for which the AC50 (on Acetylcholinesterase; in assay [1]; in assay [2]; on Prothrombin; on Histamine H3 receptor; in assay [3]) was greater than 30 µM each time. Also, the half-maximal activity concentration (AC50) in assay [4], in assay [5], in assay [6], in assay [7], in assay [8] and in assay [9] was greater than 30 µM in each case. Further, the values for the half-maximal activity concentration (AC50) on Thromboxane A2 receptor [10] and on Thromboxane A2 receptor [11] were greater than 30 µM and 24.9 µM, respectively.

As to `COc1ccc(OC)c(C(O)C(C)N)c1` (stereo unspecified) [METHOXAMINE], the concentration at half-maximal activity (AC50) at Acetylcholinesterase is greater than 30 µM; in [1] it was 25.9 µM; in assay [2], greater than 30 µM; on Prothrombin it was greater than 30 µM; at Histamine H3 receptor it was greater than 30 µM; in [3] it was greater than 30 µM. For the same compound, the half-maximal activity concentration (AC50) in [4], in [5], in assay [6], in [7], in assay [8] and in assay [9] was greater than 30 µM in each case. Also, the concentration at half-maximal activity (AC50) on Thromboxane A2 receptor [10] and at Thromboxane A2 receptor [11] was greater than 30 µM throughout.

`CC1(CCN2CCCCC2)C(=O)CCc2ccccc21` (stereo unspecified) [NEPINALONE]: the AC50 at Acetylcholinesterase is greater than 30 µM; in [1], 18.3 µM; in assay [2] it was 7.14 µM; on Prothrombin, greater than 30 µM; on Histamine H3 receptor it was greater than 30 µM; in assay [3] it was greater than 30 µM. Moreover, the concentration at half-maximal activity (AC50) in assay [4], in [5], in assay [6], in assay [7], in assay [8] and in assay [9] was greater than 30 µM in each case. For the same compound, the AC50 on Thromboxane A2 receptor [10] and at Thromboxane A2 receptor [11] was greater than 30 µM in each case.

The values above are taken from ChEMBL document CHEMBL5291721, “A preclinical secondary pharmacology resource illuminates target-adverse drug reaction associations of marketed drugs” (Nat Commun, 2023).
